Source: ChEMBL document CHEMBL1201862, “PubChem BioAssay data set” (2004)
Active and inactive are the calls of the source. For most assays here, no stated cut-off is given here; in the data, actives have a measured AC50 and inactives only a lower limit.

Columns and labels:
[1] = biological target: T1, Replicative DNA helicase DnaB (Mycobacterium tuberculosis, UniProt P9WMR3); assay: DnaB intein splicing inhibitors, dose response, biochemical, cell-free fluorescence (AID 449749); assay type: functional
T1 sequence (P9WMR3 whole entry): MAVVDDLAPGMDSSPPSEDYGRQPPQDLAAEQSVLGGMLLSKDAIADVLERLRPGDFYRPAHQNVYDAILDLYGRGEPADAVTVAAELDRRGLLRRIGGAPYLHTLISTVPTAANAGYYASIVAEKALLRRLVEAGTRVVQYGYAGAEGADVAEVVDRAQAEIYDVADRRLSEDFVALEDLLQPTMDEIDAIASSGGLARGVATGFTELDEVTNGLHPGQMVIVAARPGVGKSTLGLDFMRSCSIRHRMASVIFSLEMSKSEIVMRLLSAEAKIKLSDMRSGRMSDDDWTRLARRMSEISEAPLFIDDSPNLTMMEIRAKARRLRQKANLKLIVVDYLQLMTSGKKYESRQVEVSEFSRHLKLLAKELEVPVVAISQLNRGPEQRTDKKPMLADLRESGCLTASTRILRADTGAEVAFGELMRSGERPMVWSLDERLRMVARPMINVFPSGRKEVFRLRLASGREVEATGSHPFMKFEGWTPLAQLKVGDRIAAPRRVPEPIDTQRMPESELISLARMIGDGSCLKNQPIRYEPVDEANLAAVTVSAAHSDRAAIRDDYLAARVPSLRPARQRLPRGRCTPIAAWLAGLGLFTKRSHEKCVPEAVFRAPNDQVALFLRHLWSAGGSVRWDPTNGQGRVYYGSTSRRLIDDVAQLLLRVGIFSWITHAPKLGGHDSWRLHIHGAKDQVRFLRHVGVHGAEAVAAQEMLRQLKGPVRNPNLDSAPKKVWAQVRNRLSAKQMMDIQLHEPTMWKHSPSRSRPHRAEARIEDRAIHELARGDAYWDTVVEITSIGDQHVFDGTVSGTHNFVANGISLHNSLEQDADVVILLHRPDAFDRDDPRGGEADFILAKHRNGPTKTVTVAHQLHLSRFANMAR

[2] = biological target: T2, Protein RecA (Mycobacterium tuberculosis, UniProt P9WHJ3); assay: Fluorescence Cell-Free Homogeneous Dose Retest to Identify Inhibitors of RecA-Intein Splicing Activity. [Related pubchem assays (depositor defined):AID2097, AID2223, AID489010, AID492950]; assay type: functional
T2 sequence (P9WHJ3 whole entry): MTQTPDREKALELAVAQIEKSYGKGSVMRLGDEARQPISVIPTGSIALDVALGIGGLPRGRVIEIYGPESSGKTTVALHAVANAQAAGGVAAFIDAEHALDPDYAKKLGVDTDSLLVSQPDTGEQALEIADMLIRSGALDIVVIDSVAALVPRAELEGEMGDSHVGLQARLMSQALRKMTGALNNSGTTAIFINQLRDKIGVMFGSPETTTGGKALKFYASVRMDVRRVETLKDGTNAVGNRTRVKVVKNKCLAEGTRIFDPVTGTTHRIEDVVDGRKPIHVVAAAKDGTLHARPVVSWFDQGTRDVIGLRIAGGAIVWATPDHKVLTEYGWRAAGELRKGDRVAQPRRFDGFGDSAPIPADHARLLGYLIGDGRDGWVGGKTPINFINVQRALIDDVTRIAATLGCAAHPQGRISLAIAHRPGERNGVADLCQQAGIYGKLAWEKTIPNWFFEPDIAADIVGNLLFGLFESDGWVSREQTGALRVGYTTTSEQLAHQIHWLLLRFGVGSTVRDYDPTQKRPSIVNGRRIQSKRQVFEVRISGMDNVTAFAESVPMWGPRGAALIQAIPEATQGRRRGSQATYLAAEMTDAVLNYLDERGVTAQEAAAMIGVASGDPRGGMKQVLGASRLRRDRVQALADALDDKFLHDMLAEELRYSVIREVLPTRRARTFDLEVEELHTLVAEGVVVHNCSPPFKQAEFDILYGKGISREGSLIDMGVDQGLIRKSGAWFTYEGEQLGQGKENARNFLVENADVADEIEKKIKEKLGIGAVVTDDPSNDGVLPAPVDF

[3] = biological target: T3, Histone-lysine N-methyltransferase NSD2 (Homo sapiens, UniProt O96028); assay type: biochemical
T3 sequence (O96028 whole entry): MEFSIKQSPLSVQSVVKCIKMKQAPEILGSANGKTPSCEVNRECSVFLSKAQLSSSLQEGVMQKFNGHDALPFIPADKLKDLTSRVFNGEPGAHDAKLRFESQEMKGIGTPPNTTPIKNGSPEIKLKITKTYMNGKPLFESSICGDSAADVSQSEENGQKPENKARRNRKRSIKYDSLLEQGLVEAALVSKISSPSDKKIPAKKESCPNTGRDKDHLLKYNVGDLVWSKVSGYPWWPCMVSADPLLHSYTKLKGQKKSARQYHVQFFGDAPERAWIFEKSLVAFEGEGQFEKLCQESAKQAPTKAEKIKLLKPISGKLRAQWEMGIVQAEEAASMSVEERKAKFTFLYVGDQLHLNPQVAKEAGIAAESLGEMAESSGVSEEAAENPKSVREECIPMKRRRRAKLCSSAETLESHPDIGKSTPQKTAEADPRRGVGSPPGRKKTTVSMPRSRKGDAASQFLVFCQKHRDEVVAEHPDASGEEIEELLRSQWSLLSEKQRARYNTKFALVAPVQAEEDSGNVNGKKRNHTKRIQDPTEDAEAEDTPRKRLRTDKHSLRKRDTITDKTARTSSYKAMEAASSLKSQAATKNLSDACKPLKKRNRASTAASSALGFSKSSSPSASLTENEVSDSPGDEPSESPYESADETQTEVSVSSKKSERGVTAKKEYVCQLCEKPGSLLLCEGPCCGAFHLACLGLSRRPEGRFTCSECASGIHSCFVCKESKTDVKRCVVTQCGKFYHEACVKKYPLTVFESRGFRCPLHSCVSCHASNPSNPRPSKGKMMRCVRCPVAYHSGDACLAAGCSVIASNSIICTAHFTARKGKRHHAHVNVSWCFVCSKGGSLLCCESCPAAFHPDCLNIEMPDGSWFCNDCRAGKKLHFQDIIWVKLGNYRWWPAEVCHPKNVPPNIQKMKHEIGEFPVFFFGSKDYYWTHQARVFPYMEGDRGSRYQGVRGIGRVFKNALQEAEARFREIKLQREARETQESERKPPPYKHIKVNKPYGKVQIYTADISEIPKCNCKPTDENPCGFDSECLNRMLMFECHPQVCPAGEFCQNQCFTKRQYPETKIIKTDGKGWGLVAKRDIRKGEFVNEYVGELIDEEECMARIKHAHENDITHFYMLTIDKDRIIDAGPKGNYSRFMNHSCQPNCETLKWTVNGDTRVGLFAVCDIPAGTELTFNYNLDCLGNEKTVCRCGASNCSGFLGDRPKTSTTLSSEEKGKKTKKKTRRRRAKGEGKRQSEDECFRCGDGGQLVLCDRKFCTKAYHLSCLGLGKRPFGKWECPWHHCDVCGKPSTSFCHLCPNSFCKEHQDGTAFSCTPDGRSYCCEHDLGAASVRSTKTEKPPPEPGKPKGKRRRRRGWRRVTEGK

Compound | AC50 [1] | EC50 [2] | AC50 [3]
CCN(CC)CCN1C(=O)c2cccc3cc(N)cc(c23)C1=O | 0.272 µM (active) | 0.209 µM (active) | 
O=S(=O)(O)c1cc(Cl)cc(N=Nc2ccc(O)cc2O)c1O |  |  | 7.27 µM (active)
C=C1C(=O)O[C@@H]2C[C@@H](C)[C@@H]3C=CC(=O)[C@@]3(C)[C@@H](OC(=O)CC(=O)O[C@H]3[C@@H]4C(=C)C(=O)O[C@@H]4C[C@@H](C)[C@@H]4C=CC(=O)[C@]43C)[C@H]12 | 111 µM (active) | 46 µM (active) | 
O=C(O)c1cccc(-n2cccc2/C=C2/NC(=O)N(c3ccc(Cl)cc3)C2=O)c1 |  |  | 0.72 µM (active)
